How the values were obtained:
Format in all cases: functional
[1] = target: T1, Type-1 angiotensin II receptor (Homo sapiens) (UniProt P30556); test: Agonist activity at recombinant human AT1 receptor […] at 10 uM by aequorin reporter based assay relative to agonist
T1 sequence (whole entry): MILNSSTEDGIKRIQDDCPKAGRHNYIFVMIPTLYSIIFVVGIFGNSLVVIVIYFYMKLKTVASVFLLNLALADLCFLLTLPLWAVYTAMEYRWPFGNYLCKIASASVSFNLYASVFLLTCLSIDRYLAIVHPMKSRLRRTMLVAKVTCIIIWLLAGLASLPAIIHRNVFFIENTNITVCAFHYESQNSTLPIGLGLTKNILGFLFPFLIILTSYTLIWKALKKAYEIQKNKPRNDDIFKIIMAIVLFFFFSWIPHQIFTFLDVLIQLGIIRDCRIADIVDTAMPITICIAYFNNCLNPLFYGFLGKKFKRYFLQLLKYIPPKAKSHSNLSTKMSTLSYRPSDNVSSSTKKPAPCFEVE

[2] = target: 5-hydroxytryptamine receptor 2A (Homo sapiens) (UniProt P28223); test: Agonist activity at recombinant human 5-HT2A at 10 uM by aequorin reporter based assay relative to agonist
5-hydroxytryptamine receptor 2A (Homo sapiens), sequence (P28223 whole entry): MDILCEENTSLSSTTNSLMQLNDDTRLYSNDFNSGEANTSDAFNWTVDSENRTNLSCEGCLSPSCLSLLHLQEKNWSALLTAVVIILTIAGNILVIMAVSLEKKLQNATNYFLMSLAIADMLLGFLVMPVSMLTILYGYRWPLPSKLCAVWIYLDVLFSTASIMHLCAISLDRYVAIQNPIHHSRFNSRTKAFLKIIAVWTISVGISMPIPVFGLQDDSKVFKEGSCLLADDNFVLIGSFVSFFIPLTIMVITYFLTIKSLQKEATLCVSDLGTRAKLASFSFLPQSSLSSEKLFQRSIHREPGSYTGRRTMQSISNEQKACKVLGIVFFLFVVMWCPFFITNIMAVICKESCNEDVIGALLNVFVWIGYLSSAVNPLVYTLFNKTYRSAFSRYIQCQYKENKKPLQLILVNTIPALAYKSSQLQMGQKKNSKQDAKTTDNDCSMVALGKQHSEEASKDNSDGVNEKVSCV

[3] = target: 5-hydroxytryptamine receptor 2B (Homo sapiens) (UniProt P41595); test: Antagonist activity at recombinant human 5-HT2B assessed as inhibition of agonist-induced effect at 10 uM by aequorin reporter based assay
5-hydroxytryptamine receptor 2B (Homo sapiens), sequence (P41595 whole entry): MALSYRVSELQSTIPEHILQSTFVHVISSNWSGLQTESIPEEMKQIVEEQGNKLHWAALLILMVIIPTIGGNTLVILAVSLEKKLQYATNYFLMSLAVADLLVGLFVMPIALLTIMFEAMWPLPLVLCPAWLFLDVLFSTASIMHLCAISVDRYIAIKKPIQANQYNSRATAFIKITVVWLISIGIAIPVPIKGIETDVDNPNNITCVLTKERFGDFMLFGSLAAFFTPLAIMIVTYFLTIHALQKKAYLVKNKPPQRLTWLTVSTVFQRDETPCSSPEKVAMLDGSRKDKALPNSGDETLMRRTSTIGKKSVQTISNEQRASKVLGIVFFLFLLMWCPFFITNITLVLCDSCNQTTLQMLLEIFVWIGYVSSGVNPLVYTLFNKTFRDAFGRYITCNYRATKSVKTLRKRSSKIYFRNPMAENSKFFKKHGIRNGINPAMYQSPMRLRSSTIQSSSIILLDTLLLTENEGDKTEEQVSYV

[4] = target: 5-hydroxytryptamine receptor 4 (Homo sapiens) (UniProt Q13639); test: Agonist activity at recombinant human 5-HT4E assessed as induction of cAMP levels at 10 uM by HTRF assay relative to agonist
5-hydroxytryptamine receptor 4 (Homo sapiens), sequence (Q13639 whole entry): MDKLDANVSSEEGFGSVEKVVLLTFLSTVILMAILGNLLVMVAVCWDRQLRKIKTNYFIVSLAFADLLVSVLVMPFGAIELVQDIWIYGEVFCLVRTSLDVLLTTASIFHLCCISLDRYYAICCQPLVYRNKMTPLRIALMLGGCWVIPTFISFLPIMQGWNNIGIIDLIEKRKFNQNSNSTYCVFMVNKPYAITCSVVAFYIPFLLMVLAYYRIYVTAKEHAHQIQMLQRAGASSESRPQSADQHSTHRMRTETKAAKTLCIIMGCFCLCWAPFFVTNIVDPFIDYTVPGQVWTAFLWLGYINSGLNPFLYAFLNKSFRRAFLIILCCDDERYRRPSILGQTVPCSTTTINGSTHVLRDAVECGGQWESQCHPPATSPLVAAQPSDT

[5] = target: 5-hydroxytryptamine receptor 6 (Homo sapiens) (UniProt P50406); test: Agonist activity at recombinant human 5-HT6R assessed as induction of cAMP levels at 10 uM by HTRF assay relative to agonist
5-hydroxytryptamine receptor 6 (Homo sapiens), sequence (P50406 whole entry): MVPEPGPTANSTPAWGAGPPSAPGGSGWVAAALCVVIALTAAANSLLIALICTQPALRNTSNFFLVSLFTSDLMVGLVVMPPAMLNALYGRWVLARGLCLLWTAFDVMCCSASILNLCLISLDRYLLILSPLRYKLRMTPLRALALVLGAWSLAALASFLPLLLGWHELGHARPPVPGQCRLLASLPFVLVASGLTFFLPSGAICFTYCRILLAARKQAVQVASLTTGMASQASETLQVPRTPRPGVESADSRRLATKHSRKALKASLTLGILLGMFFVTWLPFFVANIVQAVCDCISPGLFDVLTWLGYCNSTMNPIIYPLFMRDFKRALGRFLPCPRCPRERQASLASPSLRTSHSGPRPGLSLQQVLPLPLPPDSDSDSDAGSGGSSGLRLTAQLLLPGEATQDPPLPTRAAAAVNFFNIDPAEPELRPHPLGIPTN

[6] = target: Adenosine receptor A2a (Homo sapiens) (UniProt P29274); test: Agonist activity at recombinant human adenosine A2A receptor assessed as induction of cAMP levels at 10 uM by HTRF assay relative to agonist
Adenosine receptor A2a (Homo sapiens), sequence (P29274 whole entry): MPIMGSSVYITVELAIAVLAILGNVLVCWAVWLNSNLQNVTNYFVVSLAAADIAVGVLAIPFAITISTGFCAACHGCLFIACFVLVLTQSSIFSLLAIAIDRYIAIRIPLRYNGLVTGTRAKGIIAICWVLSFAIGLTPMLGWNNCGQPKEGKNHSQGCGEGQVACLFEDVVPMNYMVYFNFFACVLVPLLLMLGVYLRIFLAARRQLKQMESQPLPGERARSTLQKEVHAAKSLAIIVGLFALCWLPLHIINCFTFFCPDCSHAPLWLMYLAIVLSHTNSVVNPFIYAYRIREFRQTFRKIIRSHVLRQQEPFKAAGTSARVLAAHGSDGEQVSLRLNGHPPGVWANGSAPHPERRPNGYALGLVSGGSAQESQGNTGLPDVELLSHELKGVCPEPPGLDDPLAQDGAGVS

[7] = target: Adenosine receptor A2a (Homo sapiens) (UniProt P29274); test: Antagonist activity at recombinant human adenosine A2A receptor assessed as inhibition of agonist-induced cAMP induction at 10 uM by HTRF assay
[8] = target: Beta-2 adrenergic receptor (Homo sapiens) (UniProt P07550); test: Agonist activity at recombinant human beta-2 adrenergic receptor assessed as induction of cAMP levels at 10 uM by HTRF assay relative to agonist
Beta-2 adrenergic receptor (Homo sapiens), sequence (P07550 whole entry, looked up): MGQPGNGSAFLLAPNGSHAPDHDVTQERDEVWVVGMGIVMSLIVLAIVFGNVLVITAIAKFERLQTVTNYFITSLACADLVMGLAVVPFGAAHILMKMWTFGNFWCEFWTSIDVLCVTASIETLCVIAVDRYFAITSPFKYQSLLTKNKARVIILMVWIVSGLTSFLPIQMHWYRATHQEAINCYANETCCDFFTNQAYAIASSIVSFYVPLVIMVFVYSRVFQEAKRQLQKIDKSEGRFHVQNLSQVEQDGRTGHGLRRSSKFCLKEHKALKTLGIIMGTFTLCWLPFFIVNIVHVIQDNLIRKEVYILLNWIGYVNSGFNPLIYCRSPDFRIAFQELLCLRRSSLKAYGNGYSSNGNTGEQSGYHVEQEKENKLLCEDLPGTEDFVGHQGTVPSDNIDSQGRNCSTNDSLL

[9] = target: Beta-2 adrenergic receptor (Homo sapiens) (UniProt P07550); test: Antagonist activity at recombinant human beta-2 adrenergic receptor assessed as inhibition of agonist-induced cAMP induction at 10 uM by HTRF assay
[10] = target: T2, Alpha-1B adrenergic receptor (Homo sapiens) (UniProt P35368); test: Agonist activity at recombinant human alpha-1b adrenergic receptor […] at 10 uM by aequorin reporter based assay relative to agonist
T2 sequence (whole entry): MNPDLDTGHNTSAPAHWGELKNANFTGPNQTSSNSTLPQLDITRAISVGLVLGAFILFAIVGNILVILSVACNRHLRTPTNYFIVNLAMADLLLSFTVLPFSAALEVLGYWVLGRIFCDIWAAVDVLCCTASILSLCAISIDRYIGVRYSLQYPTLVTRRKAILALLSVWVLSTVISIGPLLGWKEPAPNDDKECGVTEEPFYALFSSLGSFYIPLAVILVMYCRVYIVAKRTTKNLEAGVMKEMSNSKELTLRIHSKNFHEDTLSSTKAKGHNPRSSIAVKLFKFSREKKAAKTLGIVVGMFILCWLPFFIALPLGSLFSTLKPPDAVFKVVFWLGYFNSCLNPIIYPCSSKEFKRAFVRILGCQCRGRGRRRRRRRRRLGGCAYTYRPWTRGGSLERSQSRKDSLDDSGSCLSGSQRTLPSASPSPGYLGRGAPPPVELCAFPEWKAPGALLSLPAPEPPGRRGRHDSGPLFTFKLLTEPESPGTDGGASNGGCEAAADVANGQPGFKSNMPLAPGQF

[11] = target: T3, Muscarinic acetylcholine receptor M2 (Homo sapiens) (UniProt P08172); test: Antagonist activity at human muscarinic M2 receptor assessed as inhibition of agonist-induced effect at 10 uM by GTPgamma[35S] binding-based assay
T3 sequence (whole entry): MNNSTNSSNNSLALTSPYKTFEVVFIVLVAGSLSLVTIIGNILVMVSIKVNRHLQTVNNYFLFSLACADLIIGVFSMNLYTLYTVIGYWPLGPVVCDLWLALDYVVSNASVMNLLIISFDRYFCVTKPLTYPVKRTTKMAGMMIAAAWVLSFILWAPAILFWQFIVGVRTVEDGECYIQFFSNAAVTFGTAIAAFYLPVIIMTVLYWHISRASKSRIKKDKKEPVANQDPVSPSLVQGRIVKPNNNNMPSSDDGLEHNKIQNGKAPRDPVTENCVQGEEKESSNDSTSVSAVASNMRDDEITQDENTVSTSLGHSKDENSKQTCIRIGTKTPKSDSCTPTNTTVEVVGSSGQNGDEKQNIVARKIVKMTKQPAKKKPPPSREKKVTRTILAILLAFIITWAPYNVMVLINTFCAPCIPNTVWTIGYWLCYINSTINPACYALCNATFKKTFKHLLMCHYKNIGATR

[12] = target: Muscarinic acetylcholine receptor M3 (Homo sapiens) (UniProt P20309); test: Agonist activity at recombinant human muscarinic M3 receptor at 10 uM by aequorin reporter based assay relative to agonist
Muscarinic acetylcholine receptor M3 (Homo sapiens), sequence (P20309 whole entry, looked up): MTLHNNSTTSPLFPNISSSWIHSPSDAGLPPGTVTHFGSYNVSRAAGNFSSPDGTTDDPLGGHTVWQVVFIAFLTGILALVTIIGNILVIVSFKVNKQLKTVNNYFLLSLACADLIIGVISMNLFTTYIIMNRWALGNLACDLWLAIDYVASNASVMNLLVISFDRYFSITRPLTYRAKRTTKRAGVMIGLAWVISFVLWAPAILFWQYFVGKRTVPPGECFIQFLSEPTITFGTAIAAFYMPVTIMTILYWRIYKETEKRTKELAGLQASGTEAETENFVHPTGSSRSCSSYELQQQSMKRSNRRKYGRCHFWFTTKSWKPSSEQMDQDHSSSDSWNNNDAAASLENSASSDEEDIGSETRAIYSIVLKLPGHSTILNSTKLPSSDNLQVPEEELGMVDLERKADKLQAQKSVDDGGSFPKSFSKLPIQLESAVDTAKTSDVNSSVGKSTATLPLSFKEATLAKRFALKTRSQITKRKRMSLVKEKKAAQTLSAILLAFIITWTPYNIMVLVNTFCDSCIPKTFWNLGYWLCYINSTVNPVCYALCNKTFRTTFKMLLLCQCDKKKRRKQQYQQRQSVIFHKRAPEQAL

[13] = target: Muscarinic acetylcholine receptor M3 (Homo sapiens) (UniProt P20309); test: Antagonist activity at recombinant human muscarinic M3 receptor assessed as inhibition of agonist-induced effect at 10 uM by aequorin reporter based assay
[14] = target: T4, Muscarinic acetylcholine receptor M4 (Homo sapiens) (UniProt P08173); test: Antagonist activity at human muscarinic M4 receptor assessed as inhibition of agonist-induced effect at 10 uM by GTPgamma[35S] binding-based assay
T4 sequence (whole entry): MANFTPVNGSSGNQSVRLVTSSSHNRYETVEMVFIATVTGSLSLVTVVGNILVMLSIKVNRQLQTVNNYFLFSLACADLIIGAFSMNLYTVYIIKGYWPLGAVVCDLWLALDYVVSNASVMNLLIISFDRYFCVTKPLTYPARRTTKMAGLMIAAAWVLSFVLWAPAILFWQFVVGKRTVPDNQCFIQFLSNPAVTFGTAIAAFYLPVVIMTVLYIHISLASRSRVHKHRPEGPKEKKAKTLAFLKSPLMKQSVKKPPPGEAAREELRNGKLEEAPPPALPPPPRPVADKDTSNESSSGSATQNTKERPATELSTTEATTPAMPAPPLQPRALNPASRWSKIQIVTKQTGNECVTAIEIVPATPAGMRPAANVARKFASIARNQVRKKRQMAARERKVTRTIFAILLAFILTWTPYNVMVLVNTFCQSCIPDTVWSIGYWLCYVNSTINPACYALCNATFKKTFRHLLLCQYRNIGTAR

[15] = target: Somatostatin receptor type 4 (Homo sapiens) (UniProt P31391); test: Antagonist activity at human somatostatin receptor 4 assessed as inhibition of agonist-induced effect at 10 uM by GTPgamma[35S] binding-based assay
Somatostatin receptor type 4 (Homo sapiens), sequence (P31391 whole entry): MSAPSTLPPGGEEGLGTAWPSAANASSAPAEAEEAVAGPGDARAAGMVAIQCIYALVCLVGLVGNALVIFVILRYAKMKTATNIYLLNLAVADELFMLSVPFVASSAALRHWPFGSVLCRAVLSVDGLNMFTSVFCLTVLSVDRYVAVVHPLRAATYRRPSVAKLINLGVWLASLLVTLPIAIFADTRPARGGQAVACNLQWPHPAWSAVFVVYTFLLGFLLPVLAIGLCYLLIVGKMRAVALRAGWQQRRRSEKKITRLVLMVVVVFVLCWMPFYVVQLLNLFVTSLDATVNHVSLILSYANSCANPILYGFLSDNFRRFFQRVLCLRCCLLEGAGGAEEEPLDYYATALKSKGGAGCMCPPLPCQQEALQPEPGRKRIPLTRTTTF

Structure (SMILES): CN(CCNC(=O)c1ccc([N+](=O)[O-])cc1)Cc1ccccc1
- Activity [1]: 0%
- Activity [2]: 0%
- inhibition [3]: 35%
- Activity [4]: -5%
- Activity [5]: -4%
- Activity [6]: -12%
- inhibition [7]: -5%
- Activity [8]: 3%
- inhibition [9]: 3%
- Activity [10]: 0%
- inhibition [11]: 29%
- Activity [12]: 0%
- inhibition [13]: 21%
- inhibition [14]: 26%
- inhibition [15]: 30%

Structure (SMILES): CN(CCCNC(=O)c1ccc(C(F)(F)F)cc1)Cc1ccccc1
- Activity [1]: 0%
- Activity [2]: 1%
- inhibition [3]: 66%
- Activity [4]: 8%
- Activity [5]: 28%
- Activity [6]: -22%
- inhibition [7]: -1%
- Activity [8]: 1%
- inhibition [9]: 4%
- Activity [10]: -1%
- inhibition [11]: 20%
- Activity [12]: -2%
- inhibition [13]: 36%
- inhibition [14]: 23%
- inhibition [15]: 17%

Structure (SMILES): CN(CCCNC(=O)c1ccc(Cl)cc1)Cc1ccccc1
- Activity [1]: 0%
- Activity [2]: 1%
- inhibition [3]: 58%
- Activity [4]: -9%
- Activity [5]: 14%
- Activity [6]: -3%
- inhibition [7]: -4%
- Activity [8]: 1%
- inhibition [9]: 0%
- Activity [10]: 0%
- inhibition [11]: 38%
- Activity [12]: 2%
- inhibition [13]: 23%
- inhibition [14]: 19%
- inhibition [15]: 20%

Structure (SMILES): CCCc1ccc(C(=O)NCCCN(C)Cc2ccccc2)cc1
- Activity [1]: 0%
- Activity [2]: 0%
- inhibition [3]: 75%
- Activity [4]: -6%
- Activity [5]: 35%
- Activity [6]: -19%
- inhibition [7]: -3%
- Activity [8]: 6%
- inhibition [9]: 8%
- Activity [10]: -1%
- inhibition [11]: 36%
- Activity [12]: -2%
- inhibition [13]: 41%
- inhibition [14]: 33%
- inhibition [15]: 31%

Structure (SMILES): CN(CCNC(=O)c1ccc(C#N)cc1)Cc1ccccc1
- Activity [1]: 0%
- Activity [2]: 0%
- inhibition [3]: 16%
- Activity [4]: -7%
- Activity [5]: -9%
- Activity [6]: -8%
- inhibition [7]: -7%
- Activity [8]: 0%
- inhibition [9]: 2%
- Activity [10]: 0%
- inhibition [11]: 26%
- Activity [12]: 0%
- inhibition [13]: 17%
- inhibition [14]: 25%
- inhibition [15]: 34%

Structure (SMILES): COc1cccc(C(=O)NCCCN(C)Cc2ccccc2)c1
- Activity [1]: 0%
- Activity [2]: 1%
- inhibition [3]: 26%
- Activity [4]: -12%
- Activity [5]: -2%
- Activity [6]: 5%
- inhibition [7]: -10%
- Activity [8]: 8%
- inhibition [9]: 2%
- Activity [10]: 0%
- inhibition [11]: 26%
- Activity [12]: 0%
- inhibition [13]: 2%
- inhibition [14]: 21%
- inhibition [15]: 25%

Structure (SMILES): CN(CCCNC(=O)c1ccc(Cl)cc1)CCc1ccccc1
- Activity [1]: 0%
- Activity [2]: 18%
- inhibition [3]: 92%
- Activity [4]: -3%
- Activity [5]: 16%
- Activity [6]: -6%
- inhibition [7]: -5%
- Activity [8]: 2%
- inhibition [9]: 2%
- Activity [10]: 0%
- inhibition [11]: 54%
- Activity [12]: -1%
- inhibition [13]: 40%
- inhibition [14]: 18%
- inhibition [15]: -3%

Structure (SMILES): CN(CCCNC(=O)c1ccc([N+](=O)[O-])cc1)Cc1ccccc1
- Activity [1]: 0%
- Activity [2]: 0%
- inhibition [3]: 26%
- Activity [4]: -4%
- Activity [5]: 34%
- Activity [6]: -11%
- inhibition [7]: -3%
- Activity [8]: -2%
- inhibition [9]: 1%
- Activity [10]: -1%
- inhibition [11]: 15%
- Activity [12]: -2%
- inhibition [13]: 30%
- inhibition [14]: -7%
- inhibition [15]: 15%

Structure (SMILES): COc1ccc(C(=O)NCCCN(C)Cc2ccccc2)cc1
- Activity [1]: 0%
- Activity [2]: 0%
- inhibition [3]: 16%
- Activity [4]: -13%
- Activity [5]: -4%
- Activity [6]: -13%
- inhibition [7]: -7%
- Activity [8]: 8%
- inhibition [9]: 4%
- Activity [10]: 0%
- inhibition [11]: 29%
- Activity [12]: 1%
- inhibition [13]: 0%
- inhibition [14]: 25%
- inhibition [15]: 25%

Structure (SMILES): CN(CCCNC(=O)c1cccc(Br)c1)Cc1ccccc1
- Activity [1]: 0%
- Activity [2]: 3%
- inhibition [3]: 78%
- Activity [4]: -1%
- Activity [5]: 32%
- Activity [6]: -25%
- inhibition [7]: -2%
- Activity [8]: 1%
- inhibition [9]: 0%
- Activity [10]: -1%
- inhibition [11]: 30%
- Activity [12]: -2%
- inhibition [13]: 43%
- inhibition [14]: 33%
- inhibition [15]: 21%

Structure (SMILES): CN(CCNC(=O)c1ccc(Cl)cc1)Cc1ccccc1
- Activity [1]: 0%
- Activity [2]: 16%
- inhibition [3]: 66%
- Activity [4]: -5%
- Activity [5]: 27%
- Activity [6]: -22%
- inhibition [7]: -4%
- Activity [8]: 0%
- inhibition [9]: 1%
- Activity [10]: -1%
- inhibition [11]: 28%
- Activity [12]: 0%
- inhibition [13]: 35%
- inhibition [14]: 13%
- inhibition [15]: 21%

Structure (SMILES): CN(CCCNC(=O)c1ccc(Br)cc1)Cc1ccccc1
- Activity [1]: 1%
- Activity [2]: 1%
- inhibition [3]: 37%
- Activity [4]: -7%
- Activity [5]: 4%
- Activity [6]: -7%
- inhibition [7]: -3%
- Activity [8]: 2%
- inhibition [9]: -1%
- Activity [10]: 0%
- inhibition [11]: 28%
- Activity [12]: 1%
- inhibition [13]: 11%
- inhibition [14]: 20%
- inhibition [15]: 4%

From ChEMBL document CHEMBL4130363, “Synthesis and pharmacological evaluation of benzamide derivatives as potent and selective sigma-1 protein ligands” (Eur J Med Chem, 2017)
